# Assay results taken from US20210371385A1, “POLYMORPHIC AND AMORPHOUS FORMS OF ISOQUINOLINONE AND METHODS OF USE THEREOF” (Sojournix, Inc., priority 2018, published 2021).
# Where two headings read alike, the source gives them in different places.
# Key:
# [1] = pKa measured by titration (Example 3); type: physicochemical; conditions: measurable detection limit of 2
# Protocol: The pKa value was measured by titration.
# [2] = Absorption of solid compound dosed orally in rats; type: in vivo, Sprague Dawley rats; conditions: for bioavailability: Sprague Dawley, rat, in vivo, oral microsuspension, read-out: Absolute bioavailability
# Protocol: The possibility of dosing SJB-01 orally as a solid was explored in rats, as a means to evaluate the developability of the compound. Clinical relevant doses (1, 5 and 10 mg/kg) were administered to rats as microsuspensions. Furthermore, to explore the role of particle size, a suspension (5 mg/kg) was administered as well for comparison.
# [3] = in vivo, 140 mg/kg
# Protocol: Formulations for toxicological evaluation of SJB-01 were considered. The highest solubility was obtained with 100% PEG 400 and a mixture of Gelucire and PEG 400. Since a formulation with Gelucire:PEG required increased handling time, including dosing at ˜45° C., 100% PEG 400 was chosen for formulation purpose in the early toxicological evaluation including mini-MTD (maximum tolerated dose) and a 14 days toxicological dosing study. The maximum dose reached was 140 mg/kg-the highest possible dose achievable with PEG 400 as vehicle. […] From a formulation perspective, this can only be done by using Gelucire:PEG as a vehicle, under the assumption that a solution will lead to a higher bioavailability than dosing the compound in a PEG 400 suspension. In the table below, the maximum dose of SJB-01 given on a solubilized form is provided, taking into account the tolerated dose of the vehicle as well.
smiles,measurement,setting,value
"CCNn1c(C)c(C(=O)N[C@H](c2ccccc2)C2CC2)c2cccc(F)c2c1=O [SJB-01, 2-Ethylamino-8-fluoro-3-methyl-1-oxo-1,2-dihydro-isoquinoline-4-carboxylic acid ((S)-cyclopropyl-phenyl-methyl)-amide]",pKa,[1],< 2
same,bioavailability,[2]; 10 mg/kg,~30%
same,bioavailability,[2]; 1 and 5 mg/kg,~20%
same,"Bioavailability, comparison of particle size","[2]; oral, 5 mg/kg, particle size 10 and 50 μm",no differences in bioavailability
same,Clinical observations at maximum dose reached,[3],no clinical observations
